# Measured values taken from ChEMBL document CHEMBL5543097, “Synthesis and structure-activity relationships of novel 14-membered 2-fluoro ketolides with structural modification at the C11 position” (Eur J Med Chem, 2024).
# Key:
# [1] = tested on: Streptococcus pneumoniae; test: Antibacterial activity against erythromycin-resistant Streptococcus pneumoniae SPN19-14 assessed as inhibition of visible bacterial growth incubated for 18 hrs by broth microdilution method; type: functional
# [2] = tested on: Staphylococcus epidermidis; test: Antibacterial activity against erythromycin-resistant Staphylococcus epidermidis 19-9 assessed as inhibition of visible bacterial growth incubated for 18 hrs by broth microdilution method; type: functional
# [3] = tested on: Staphylococcus epidermidis; test: Antibacterial activity against erythromycin-resistant Staphylococcus epidermidis 19-4 assessed as inhibition of visible bacterial growth incubated for 18 hrs by broth microdilution method; type: functional
# [4] = Metabolic stability in human liver microsome assessed as half life measured at 60 mins by LC-MS/MS analysis; type: ADME; conditions: liver microsomes
# [5] = Cytotoxicity against mouse AML12 cells assessed as reduction in cell viability incubated for 48 hrs by MTT assay; type: toxicity, cell-based
# [6] = tested on: Streptococcus pneumoniae; test: Antibacterial activity against erythromycin-resistant Streptococcus pneumoniae SPN19-13 assessed as inhibition of visible bacterial growth incubated for 18 hrs by broth microdilution method; type: functional
# [7] = tested on: Staphylococcus epidermidis; test: Antibacterial activity against erythromycin-resistant Staphylococcus epidermidis 19-6 assessed as inhibition of visible bacterial growth incubated for 18 hrs by broth microdilution method; type: functional
# [8] = tested on: Streptococcus pyogenes; test: Antibacterial activity against erythromycin-resistant Streptococcus pyogenes ATCC 19615 assessed as inhibition of visible bacterial growth incubated for 18 hrs by broth microdilution method; type: functional
# [9] = tested on: Staphylococcus epidermidis; test: Antibacterial activity against erythromycin-resistant Staphylococcus epidermidis 19-5 assessed as inhibition of visible bacterial growth incubated for 18 hrs by broth microdilution method; type: functional
# [10] = tested on: Staphylococcus epidermidis; test: Antibacterial activity against erythromycin-resistant Staphylococcus epidermidis 19-11 assessed as inhibition of visible bacterial growth incubated for 18 hrs by broth microdilution method; type: functional
# [11] = tested on: Moraxella catarrhalis; test: Antibacterial activity against Moraxella catarrhalis BCA 19-31 assessed as inhibition of bacterial growth incubated for 24 hrs by CLSI based broth microdilution method; type: functional; conditions: BCA 19-31, 24 h
# [12] = tested on: Streptococcus pneumoniae; test: Antibacterial activity against erythromycin-resistant Streptococcus pneumoniae SPN19-8 assessed as inhibition of visible bacterial growth incubated for 18 hrs by broth microdilution method; type: functional
# [13] = Metabolic stability in human liver microsome assessed as parent compound remaining in absence of NADPH measured at 60 mins by LC-MS/MS analysis; type: ADME; conditions: liver microsomes, read-out: Stability
# [14] = Metabolic stability in human liver microsome assessed as parent compound remaining in presence of NADPH measured at 60 mins by LC-MS/MS analysis; type: ADME; conditions: liver microsomes, read-out: Stability
# [15] = tested on: Moraxella catarrhalis; test: Antibacterial activity against Moraxella catarrhalis BCA 19-5 assessed as inhibition of bacterial growth incubated for 24 hrs by CLSI based broth microdilution method; type: functional; conditions: Moraxella catarrhalis, BCA 19-5, 24 h, read-out: MIC
# [16] = tested on: Haemophilus influenzae; test: Antibacterial activity against Haemophilus influenzae HIN 19-15 assessed as inhibition of bacterial growth incubated for 20 to 24 hrs by CLSI based broth microdilution method; type: functional; conditions: time 20-24 hrs
# [17] = tested on: Moraxella catarrhalis; test: Antibacterial activity against Moraxella catarrhalis BCA 19-6 assessed as inhibition of bacterial growth incubated for 24 hrs by CLSI based broth microdilution method; type: functional; conditions: Moraxella catarrhalis, BCA 19-6, 24 h, read-out: MIC
# [18] = tested on: Staphylococcus epidermidis; test: Antibacterial activity against erythromycin-resistant Staphylococcus epidermidis 19-8 assessed as inhibition of visible bacterial growth incubated for 18 hrs by broth microdilution method; type: functional
# [19] = tested on: Haemophilus influenzae; test: Antibacterial activity against Haemophilus influenzae HIN 19-18 assessed as inhibition of bacterial growth incubated for 20 to 24 hrs by CLSI based broth microdilution method; type: functional; conditions: HIN 19-18, time 20-24 hrs
# [20] = tested on: Streptococcus agalactiae; test: Antibacterial activity against erythromycin-resistant Streptococcus agalactiae 19-8 assessed as inhibition of visible bacterial growth incubated for 18 hrs by broth microdilution method; type: functional
# [21] = tested on: Streptococcus agalactiae; test: Antibacterial activity against erythromycin-resistant Streptococcus agalactiae 19-9 assessed as inhibition of visible bacterial growth incubated for 18 hrs by broth microdilution method; type: functional
# [22] = Metabolic stability in human liver microsome assessed as intrinsic clearance measured at 60 mins by LC-MS/MS analysis; type: ADME; conditions: liver microsomes, read-out: CLH
# [23] = tested on: Haemophilus influenzae; test: Antibacterial activity against Haemophilus influenzae HIN 20-18 assessed as inhibition of bacterial growth incubated for 20 to 24 hrs by CLSI based broth microdilution method; type: functional; conditions: time 20-24 hrs
# [24] = tested on: Staphylococcus epidermidis; test: Potency index, ratio of telithromycin MIC to test compound MIC for antibacterial activity against erythromycin-resistant Staphylococcus epidermidis 19-9 assessed as inhibition of visible bacterial growth incubated for 18 hrs by broth microdilution method; type: functional
# [25] = tested on: Streptococcus pneumoniae; test: Potency index, ratio of telithromycin MIC to test compound MIC for antibacterial activity against Streptococcus pneumoniae SPN19-14 assessed as inhibition of visible bacterial growth incubated for 18 hrs by broth microdilution method; type: functional
# [26] = tested on: Streptococcus pneumoniae; test: Potency index, ratio of telithromycin MIC to test compound MIC for antibacterial activity against Streptococcus pneumoniae SPN19-8 assessed as inhibition of visible bacterial growth incubated for 18 hrs by broth microdilution method; type: functional
# [27] = tested on: Staphylococcus epidermidis; test: Potency index, ratio of telithromycin MIC to test compound MIC for antibacterial activity against erythromycin-resistant Staphylococcus epidermidis 19-8 assessed as inhibition of visible bacterial growth incubated for 18 hrs by broth microdilution method; type: functional
# [28] = tested on: Staphylococcus epidermidis; test: Potency index, ratio of telithromycin MIC to test compound MIC for antibacterial activity against erythromycin-resistant Staphylococcus epidermidis 19-5 assessed as inhibition of visible bacterial growth incubated for 18 hrs by broth microdilution method; type: functional
# [29] = tested on: Streptococcus pneumoniae; test: Potency index, ratio of telithromycin MIC to test compound MIC for antibacterial activity against Streptococcus pneumoniae SPN19-13 assessed as inhibition of visible bacterial growth incubated for 18 hrs by broth microdilution method; type: functional
# [30] = tested on: Staphylococcus epidermidis; test: Potency index, ratio of telithromycin MIC to test compound MIC for antibacterial activity against erythromycin-resistant Staphylococcus epidermidis 19-6 assessed as inhibition of visible bacterial growth incubated for 18 hrs by broth microdilution method; type: functional
# [31] = tested on: Staphylococcus epidermidis; test: Potency index, ratio of telithromycin MIC to test compound MIC for antibacterial activity against erythromycin-resistant Staphylococcus epidermidis 19-4 assessed as inhibition of visible bacterial growth incubated for 18 hrs by broth microdilution method; type: functional
# [32] = tested on: Staphylococcus epidermidis; test: Potency index, ratio of telithromycin MIC to test compound MIC for antibacterial activity against erythromycin-resistant Staphylococcus epidermidis 19-11 assessed as inhibition of visible bacterial growth incubated for 18 hrs by broth microdilution method; type: functional
SMILES,MIC [1],MIC [2],MIC [3],half-life [4],CC50 at 48 h [5],MIC [6],MIC [7],MIC [8],MIC [9],MIC [10],MIC [11],MIC [12],remaining at 1 h [13],remaining at 1 h [14],MIC [15],MIC [16],MIC [17],MIC [18],MIC [19],MIC [21],further results
CC[C@H]1OC(=O)[C@@](C)(F)C(=O)[C@H](C)[C@@H](O[C@@H]2O[C@H](C)C[C@H](N(C)C)[C@H]2O)[C@](C)(OC)C[C@@H](C)C(=O)[C@H](C)[C@H]2N(CCCOC(=O)Nc3cccc(C)c3)C(=O)O[C@]12C,< 0.03 µg/mL,0.06 µg/mL,< 0.03 µg/mL,5.2 min,76.8 µM,< 0.03 µg/mL,0.03 µg/mL,< 0.03 µg/mL,< 0.03 µg/mL,< 0.03 µg/mL,< 0.03 µg/mL,0.125 µg/mL,97.5%,1.2%,< 0.03 µg/mL,8 µg/mL,< 0.03 µg/mL,< 0.03 µg/mL,8 µg/mL,0.06 µg/mL,MIC [20]: < 0.03 µg/mL; microsomal CLint [22]: 266 µL/min/mg
CC[C@H]1OC(=O)[C@@](C)(F)C(=O)[C@H](C)[C@@H](O[C@@H]2O[C@H](C)C[C@H](N(C)C)[C@H]2O)[C@](C)(OC)C[C@@H](C)C(=O)[C@H](C)[C@H]2N(CCCOC(=O)Nc3c(C)noc3C)C(=O)O[C@]12C,0.25 µg/mL,0.5 µg/mL,0.25 µg/mL,37.2 min,> 100 µM,0.25 µg/mL,0.25 µg/mL,< 0.03 µg/mL,0.03 µg/mL,0.125 µg/mL,0.125 µg/mL,0.25 µg/mL,101%,26.6%,0.5 µg/mL,1 µg/mL,0.5 µg/mL,0.25 µg/mL,1 µg/mL,4 µg/mL,MIC [23]: 8 µg/mL; microsomal CLint [22]: 37.3 µL/min/mg
CC[C@H]1OC(=O)[C@@](C)(F)C(=O)[C@H](C)[C@@H](O[C@@H]2O[C@H](C)C[C@H](N(C)C)[C@H]2O)[C@](C)(OC)C[C@@H](C)C(=O)[C@H](C)[C@H]2N(CCCOC(=O)Nc3ccc(F)cc3)C(=O)O[C@]12C,< 0.03 µg/mL,0.06 µg/mL,< 0.03 µg/mL,3.8 min,97.9 µM,< 0.03 µg/mL,< 0.03 µg/mL,< 0.03 µg/mL,< 0.03 µg/mL,< 0.03 µg/mL,0.03 µg/mL,< 0.03 µg/mL,95%,0.4%,0.03 µg/mL,4 µg/mL,0.03 µg/mL,< 0.03 µg/mL,2 µg/mL,0.25 µg/mL,Ratio [24]: 4; Ratio [25]: <4; Ratio [26]: <4; Ratio [27]: 4; Ratio [28]: 4; Ratio [29]: <4; Ratio [30]: 4; Ratio [31]: 4; Ratio [32]: 4; MIC [20]: < 0.03 µg/mL; microsomal CLint [22]: 183 µL/min/mg
CC[C@H]1OC(=O)[C@@](C)(F)C(=O)[C@H](C)[C@@H](O[C@@H]2O[C@H](C)C[C@H](N(C)C)[C@H]2O)[C@](C)(OC)C[C@@H](C)C(=O)[C@H](C)[C@H]2N(CCCOC(=O)Nc3ccc4c(c3)CCO4)C(=O)O[C@]12C,0.06 µg/mL,0.06 µg/mL,0.03 µg/mL,2 min,> 100 µM,0.6 µg/mL,0.06 µg/mL,< 0.03 µg/mL,< 0.03 µg/mL,< 0.03 µg/mL,0.06 µg/mL,0.06 µg/mL,89.4%,0.3%,0.06 µg/mL,8 µg/mL,0.125 µg/mL,0.03 µg/mL,2 µg/mL,2 µg/mL,Ratio [24]: 4; Ratio [25]: <4; Ratio [26]: <4; Ratio [27]: 4; Ratio [28]: 4; Ratio [29]: <4; Ratio [30]: 4; Ratio [31]: 4; Ratio [32]: 4; MIC [23]: 8 µg/mL; microsomal CLint [22]: 341 µL/min/mg
